Six molecules from ChEMBL document CHEMBL5223066, “The medicinal chemistry of mitochondrial dysfunction: a critical overview of efforts to modulate mitochondrial health” (RSC Med Chem, 2021) can be followed below.

The Cmax is the highest concentration seen after dosing. Broadly, the Kp is tissue or fluid exposure divided by exposure in the circulation. Usually inhibition stands for the share of the control response that was lost under treatment. In general, efflux ratio refers to a quotient of directional permeabilities that is used to spot active efflux. Broadly, the EC50 is the concentration at which the effect is half-maximal. A higher EC50 goes with a less potent agent.

SMILES strings stand for the structures.

The nature of data set [1]: Cmax in rat at 3 mg/kg, iv. In kind it is ADME, organism-based. Further details: dose 3 mg/kg, route iv. The following applies: in vivo.
Data set [2] can be described thus: Ratio of drug level in brain to blood in BALB/c mouse at 5 mg/kg, po. In kind it is ADME, organism-based.
A short description of data set [3]: Cmax in human CSF at 1000 mg, po bid administered for 8 weeks. In kind it is ADME, organism-based, Cerebrospinal fluid. Set-up: dose 1000 mg, time 8 weeks, route po.
A short description of data set [4]: Cmax in human CSF at 500 mg, po qd administered for 8 weeks. In kind it is ADME, organism-based, Cerebrospinal fluid. Set-up: time 8 weeks, dose 500 mg, route po.
The next data set has as its target hERG (KCNH2) (Homo sapiens, UniProt Q12809). The data set is described as follows: Inhibition of hERG at 30 uM relative to control. In kind it is toxicity. (The hERG channel carries a current that helps repolarise heart muscle cells.)
Data set [5] can be described thus: Efflux ratio in dog MDCK-MDR1 cells. In kind it is ADME, cell-based, Canis lupus familiaris.
Data set [6] can be described thus: Induction of mitophagy in human HeLa cells. In kind it is functional, cell-based.
The nature of data set [7]: Drug concentration in brain of mouse at 400 mg/kg, po qd. The conditions noted are these: in vivo, read-out: Ct. In kind it is ADME, organism-based.

hERG (KCNH2), sequence (Q12809 whole entry): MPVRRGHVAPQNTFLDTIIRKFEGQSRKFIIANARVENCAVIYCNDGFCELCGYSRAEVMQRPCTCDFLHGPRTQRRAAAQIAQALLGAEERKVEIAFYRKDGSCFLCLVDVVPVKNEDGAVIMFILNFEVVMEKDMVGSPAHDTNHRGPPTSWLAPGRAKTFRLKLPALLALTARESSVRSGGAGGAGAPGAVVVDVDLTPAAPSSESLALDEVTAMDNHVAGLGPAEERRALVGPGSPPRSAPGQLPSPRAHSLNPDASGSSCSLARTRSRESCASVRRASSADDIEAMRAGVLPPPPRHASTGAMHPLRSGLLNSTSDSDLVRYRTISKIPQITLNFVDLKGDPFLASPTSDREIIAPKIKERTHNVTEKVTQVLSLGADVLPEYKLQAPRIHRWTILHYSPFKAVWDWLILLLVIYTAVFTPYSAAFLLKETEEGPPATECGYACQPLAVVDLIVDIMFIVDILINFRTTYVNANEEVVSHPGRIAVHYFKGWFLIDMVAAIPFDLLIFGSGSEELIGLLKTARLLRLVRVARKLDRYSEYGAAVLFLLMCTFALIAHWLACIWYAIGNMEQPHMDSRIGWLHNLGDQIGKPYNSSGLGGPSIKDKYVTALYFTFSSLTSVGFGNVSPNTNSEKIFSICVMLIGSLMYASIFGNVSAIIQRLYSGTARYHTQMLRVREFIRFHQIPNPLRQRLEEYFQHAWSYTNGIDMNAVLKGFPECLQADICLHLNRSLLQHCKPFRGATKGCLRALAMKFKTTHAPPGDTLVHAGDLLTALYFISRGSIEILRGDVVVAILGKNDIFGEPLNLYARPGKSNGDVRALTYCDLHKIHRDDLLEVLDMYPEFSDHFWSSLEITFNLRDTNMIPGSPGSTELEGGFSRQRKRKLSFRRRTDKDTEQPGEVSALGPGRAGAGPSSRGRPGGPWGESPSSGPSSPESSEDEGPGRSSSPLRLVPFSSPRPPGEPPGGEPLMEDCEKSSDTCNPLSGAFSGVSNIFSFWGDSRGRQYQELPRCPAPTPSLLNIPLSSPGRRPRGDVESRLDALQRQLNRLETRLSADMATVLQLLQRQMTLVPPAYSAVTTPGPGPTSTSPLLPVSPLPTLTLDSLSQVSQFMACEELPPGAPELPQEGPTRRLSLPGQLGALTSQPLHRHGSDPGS

For the molecule `CN(CCOc1ccc(CC2SC(=O)NC2=O)cc1)c1ccccn1` (stereo not drawn) [ROSIGLITAZONE], the highest level in data set [1] (Cmax) was 2960 nM. For the molecule `CO[C@H]1C[C@@H]2CC[C@@H](C)[C@@](O)(O2)C(=O)C(=O)N2CCCC[C@H]2C(=O)O[C@H]([C@H](C)C[C@@H]2CC[C@@H](OCCO)[C@H](OC)C2)CC(=O)[C@H](C)/C=C(\C)[C@@H](O)[C@@H](OC)C(=O)[C@H](C)C[C@H](C)/C=C/C=C/C=C/1C` [EVEROLIMUS], in data set [2], the Kp stood at 0.015. For the molecule `CN(C)C(=N)N=C(N)N` [METFORMIN], the Cmax in data set [3] and in data set [4] was 741 nM each time. At hERG (KCNH2), `C[C@@H]1C[C@@H](NC(=O)c2ncc(-c3cccc(C#N)c3)o2)CN1C#N` came in with an inhibition at 30 µM of 30.2%. The efflux ratio in data set [5] is 23. Regarding `FC(F)(F)c1cc2c(NC3CCCc4ccccc43)ncnc2[nH]1` (stereo not drawn), the EC50 in data set [6] came out at 440 nM. Take `c1coc(CNc2ncnc3[nH]cnc23)c1` [KINETIN]: the concentration in data set [7] came to 2970 nM.
